How the values were obtained:
Assay in all cases: Antifungal activity in vitro, serial dilution in RPMI 1640
Assay type in all cases: cell-based
[1] = system: Candida albicans ATCC 10231; conditions: Table 2A, RPMI 1640, pH 7.0; for Antifungal activity Candida albicans ATCC 10231 IC50: A531 50% of control; for Antifungal activity Candida albicans ATCC 10231 MIC: A531 at most 20% of control
Experimental: (§1) For the determination of antifungal activity in vitro we used method of serial dilution in buffered medium RPMI 1640, pH 7.0, in a 96-wells microplates, according to the standard procedure (National Committee for Clinical Laboratory Standards. Reference method for broth dilution antifungal susceptibility testing of yeast, approved standard, 2nd ed. M27-A2 vol. 22 Wayne, Pa., 2002). The optical density of cells suspension was measured using a microplates reader (Victor^3, Perkin-Elmer) at the wavelength λ=531 nm (A531). On the basis of obtained results the diagrams of relation between A531 values and concentration of examined compound were made. From these graphs, the IC50 values were read, which were the interpolated concentrations of a tested compound, at which the A531 value was exactly 50% of the A531 value for the control sample. Moreover, MIC values, that are the lowest concentration of tested compound at which the A531 value were at most 20% of the A531 value measured for the control sample.

[2] = system: Candida tropicalis KKP 334; conditions: Table 2A; RPMI 1640, pH 7.0
Experimental: as §1

Candida krusei DSM 6128 = conditions: Table 2A; RPMI 1640, pH 7.0
Experimental: as §1

[3] = system: Candida glabrata DSM 11226; conditions: Table 2A; RPMI 1640, pH 7.0
Experimental: as §1

[4] = system: Saccharomyces cerevisiae ATCC 9763; conditions: Table 2A; RPMI 1640, pH 7.0; A531 at most 20% of control
Experimental: as §1

CC1OC(O[C@H]2/C=C/C=C/C=C/C=C/CC/C=C/C=C/[C@H](C)[C@@H](O)[C@@H](C)[C@H](C)OC(=O)C[C@H](O)C[C@H](O)C[C@H](O)CC[C@@H](O)[C@H](O)CC3(O)C[C@H](O)[C@@H](C(=O)O)[C@H](C2)O3)C(O)C(NC(=O)[C@H](N)Cc2cccnc2)C1O (stereo partly drawn) [Compound N42, N-D-β-(pyridin-3-yl)alanylnystatin A1]
Antifungal activity Candida albicans ATCC 10231 IC50 [1]: 10.54 µg/mL | Antifungal activity Candida albicans ATCC 10231 MIC [1]: 16 µg/mL | Antifungal activity Candida tropicalis KKP 334 MIC [2]: 16 µg/mL | Antifungal activity Candida krusei DSM 6128 MIC (Candida krusei DSM 6128): 32 µg/mL | Antifungal activity Candida glabrata DSM 11226 MIC [3]: 32 µg/mL | Antifungal activity Saccharomyces cerevisiae ATCC 9763 MIC [4]: 8 µg/mL

CC1OC(O[C@H]2/C=C/C=C/C=C/C=C/CC/C=C/C=C/[C@H](C)[C@@H](O)[C@@H](C)[C@H](C)OC(=O)C[C@H](O)C[C@H](O)C[C@H](O)CC[C@@H](O)[C@H](O)CC3(O)C[C@H](O)[C@@H](C(=O)O)[C@H](C2)O3)C(O)C(NC(=O)[C@@H](N)CCC(=O)OC(C)(C)C)C1O (stereo partly drawn) [Compound N35, N-L-(O-tert-butyl)glutamylnystatin A1]
Antifungal activity Candida albicans ATCC 10231 IC50 [1]: 6.36 µg/mL | Antifungal activity Candida albicans ATCC 10231 MIC [1]: 8 µg/mL | Antifungal activity Candida tropicalis KKP 334 MIC [2]: 16 µg/mL | Antifungal activity Candida krusei DSM 6128 MIC (Candida krusei DSM 6128): 16 µg/mL | Antifungal activity Candida glabrata DSM 11226 MIC [3]: 16 µg/mL | Antifungal activity Saccharomyces cerevisiae ATCC 9763 MIC [4]: 8 µg/mL

Cc1cc(C)c(N2C(=O)CC(N[C@@H]3[C@H](O)[C@H](O[C@H]4/C=C/C=C/C=C/C=C/CC/C=C/C=C/[C@H](C)[C@@H](O)[C@@H](C)[C@H](C)OC(=O)C[C@H](O)C[C@H](O)CC[C@@H](O)[C@H](O)C[C@H](O)C[C@]5(O)C[C@H](O)[C@@H](C(=O)O)[C@H](C4)O5)O[C@H](C)[C@H]3O)C2=O)c(C)c1 (some centres unmarked) [Compound N3, N—(N′-2,4,6-trimethylphenylsuccinimidyl)nystatin A1]
Antifungal activity Candida albicans ATCC 10231 IC50 [1]: 11.76 µg/mL | Antifungal activity Candida albicans ATCC 10231 MIC [1]: 16 µg/mL | Antifungal activity Candida tropicalis KKP 334 MIC [2]: 16 µg/mL | Antifungal activity Candida glabrata DSM 11226 MIC [3]: 32 µg/mL | Antifungal activity Saccharomyces cerevisiae ATCC 9763 MIC [4]: 8 µg/mL

N—(N′-cyclohexylsuccinimidyl)nystatin A1 [Compound N5]
Antifungal activity Candida albicans ATCC 10231 IC50 [1]: 5.77 µg/mL | Antifungal activity Candida albicans ATCC 10231 MIC [1]: 8 µg/mL | Antifungal activity Candida tropicalis KKP 334 MIC [2]: 8 µg/mL | Antifungal activity Candida krusei DSM 6128 MIC (Candida krusei DSM 6128): 16 µg/mL | Antifungal activity Candida glabrata DSM 11226 MIC [3]: 16 µg/mL | Antifungal activity Saccharomyces cerevisiae ATCC 9763 MIC [4]: 8 µg/mL

CC1OC(O[C@H]2/C=C/C=C/C=C/C=C/CC/C=C/C=C/[C@H](C)[C@@H](O)[C@@H](C)[C@H](C)OC(=O)C[C@H](O)C[C@H](O)C[C@H](O)CC[C@@H](O)[C@H](O)CC3(O)C[C@H](O)[C@@H](C(=O)O)[C@H](C2)O3)C(O)C(NC2CC(=O)N(c3ccc(Br)cc3)C2=O)C1O (some centres unmarked) [Compound N2, N—(N′-4-bromophenylsuccinimidyl)nystatin A1]
Antifungal activity Candida albicans ATCC 10231 IC50 [1]: 4.99 µg/mL | Antifungal activity Candida albicans ATCC 10231 MIC [1]: 8 µg/mL | Antifungal activity Candida tropicalis KKP 334 MIC [2]: 8 µg/mL | Antifungal activity Candida krusei DSM 6128 MIC (Candida krusei DSM 6128): 16 µg/mL | Antifungal activity Candida glabrata DSM 11226 MIC [3]: 16 µg/mL | Antifungal activity Saccharomyces cerevisiae ATCC 9763 MIC [4]: 8 µg/mL

CC1OC(O[C@H]2/C=C/C=C/C=C/C=C/CC/C=C/C=C/[C@H](C)[C@@H](O)[C@@H](C)[C@H](C)OC(=O)C[C@H](O)C[C@H](O)C[C@H](O)CC[C@@H](O)[C@H](O)CC3(O)C[C@H](O)[C@@H](C(=O)O)[C@H](C2)O3)C(O)C(NC2CC(=O)N(Cc3ccccc3)C2=O)C1O (some centres unmarked) [Compound N1, N—(N′-benzylsuccinimidyl)nystatin A1]
Antifungal activity Candida albicans ATCC 10231 IC50 [1]: 5.36 µg/mL | Antifungal activity Candida albicans ATCC 10231 MIC [1]: 8 µg/mL | Antifungal activity Candida tropicalis KKP 334 MIC [2]: 8 µg/mL | Antifungal activity Candida krusei DSM 6128 MIC (Candida krusei DSM 6128): 32 µg/mL | Antifungal activity Candida glabrata DSM 11226 MIC [3]: 16 µg/mL | Antifungal activity Saccharomyces cerevisiae ATCC 9763 MIC [4]: 8 µg/mL

Source: patent publication US9447136B2, “Semisynthetic derivatives of Nystatin A1” (BLIRT S.A., priority 2012, dated 2016)
